Measured values from patent US8299083B2, “PDE5 inhibitor compositions and methods for treating cardiac indications” (The Johns Hopkins University, priority 2004, dated 2012).

How the values were obtained:
Assay type in all cases: in vivo, mouse
AktTG and NTG mice = test: Transgenic mice with cardiac-targeted Akt overexpression (AktTG) and NTG controls: pressure-volume analysis, echo, heart weight; conditions: for EDP / EDV / EF / ESP / ESV / Eesn / HR / PMXI / Tau / dP/dtmax/IP / dPdtmax / dPdtmin: sildenafil 100 mg/kg/day
Method: In vehicle-treated animals (age 4-5 months), AktTG hearts were larger and had reduced heart function (FIG. 10E and Table 3). […]
Transthoracic two-dimensional guided M-mode echocardiography was performed in non-anesthetized mice. Measurements were done using an echocardiography system, the SEQUOIA C256 (Siemens, Munich, Del.) with the 15 MHz linear-array transducer. Intact heart hemodynamic analysis was performed as described^90. These studies employed a four-electrode pressure-volume catheter (model SPR-839, Millar Instruments) placed through the left ventricular apex in the open chest anesthetized animal and positioned along the longitudinal axis to record chamber volume by impedance and pressure by micromanometry.
All hemodynamic data were recorded using custom developed software, digitizing signals at 2 KHz. End-diastolic and end-systolic volumes were the average of volumes measured during isovolumic contraction and relaxation, respectively. ESP was the pressure at maximal chamber elastance (P/V ratio)^1. EDP was the diastolic pressure at the lower right hand corner of the pressure-volume loop. Cardiac output was determined from a perivascular flow probe (Transonics, Ithica, N.Y.) placed around the thoracic aorta. Ea was equal to the ratio of end-systolic pressure divided by stroke volume. The volume catheter signal was calibrated for both gain and offset. Gain was determined by setting the catheter-derived cardiac output (equal to pressure-volume loop width times heart rate) to that obtained from the calibrated flow probe value. Offset was determined using the hypertonic saline method Ventricular power was equal to the instantaneous product of pressure times flow, and the peak power was divided by EDV to obtain the power index PMXI^79. […] The slope of this relation Ees was normalized by heart mass and expressed per gm heart mass. Msw was derived from the linear relation between stroke work and EDV from the same set of variably loaded cardiac cycles used to derive Eesn, and is another load-independent assessment of systolic contractile function^4. Tau was obtained from the model: P=Po+ae^−t/□ . . . fitting data during isovolumic relaxation. dP/dt was derived from a digital filter (5-point weighted slope). PFR/EDV was derived from the maximal first derivative of the volume signal during early diastole, divided by EDV.

Akt = Akt activation in TAC hearts (Western blot, activity assay); conditions: 1 and 9 week TAC
Method: (§1) Protein was prepared from snap-frozen heart tissue using extraction buffer as described previously^90. Antibodies included calcineurin (1:2000 dilution, BD Transduction Laboratories (San Diego, Calif.), GSK3β, Ser9-phospho-GSK313, Akt, Ser473-phospho-Akt, ERK, Thr202/Thr204-phospho-ERK (1:1000 dilution, Cell Signaling Technology, Beverly, Mass.). Primary antibody binding was visualized by horse radish peroxidase-conjugated secondary antibodies and enhanced chemiluminescence (Pierce, Rockford, Ill.).
PI3Kα activity was assessed by Elisa assay following immunoprecipitation of PI3K (Seize X IP Kit, Pierce) using a p85α monoclonal antibody (Cell Signaling), with activity measured by fluorescence polarization (Molecular Devices, Perkin-Elmer Victor 3 plate reader). Akt activity (IP with s473-pAkt Ab, GSK-3 fusion protein substrate) was performed using a commercial kit (Cell Signaling Technology, Beverly, Mass.). PKG-1 activity was assayed by calorimetric analysis, CycLex (Clinisciences, Montrouge, FR) from whole heart lysates.

GSK3β = GSK3β phosphorylation in TAC hearts (Western blot)
Method: as §1

STAT3 = STAT3 phosphorylation in TAC hearts
Method: Myocardial tissue extract was electrophoresed in SDS-New Page gel, and probed for both tyrosine phosphorylated (Tyr705) and total Stat3. In additional studies, rat neonatal myocytes were cultured, then exposed to interleukin 6 (IL-6, Cell Signaling, 100 ng/ml) for one hour. […] In other studies, cells were pre-transfected (Lipofectamine™, Invitrogen) with mixed oligonucleotide silencing RNAs for STAT3 (siRNA, SmarTTpool Stat3). Protein extracts were obtained from myocyte extracts after the 1 hour incubation period, and probed for phosphorylated and total protein levels of Stat1 (Tyr701) and Stat3 (Tyr705) (Cell Signaling Inc.). siRNA was transfected into neonatal myocytes.

CCCc1nn(C)c2c(=O)[nH]c(-c3cc(S(=O)(=O)N4CCN(C)CC4)ccc3OCC)nc12 [sildenafil]
progressive hypertrophy in AktTG mice (serial echo, heart weight/tibia length) (AktTG and NTG mice; AktTG, 6-week period): did not blunt progressive hypertrophy
EDP (AktTG and NTG mice; AktTG): 8.9 ± 1.1
EDV (AktTG and NTG mice; AktTG): 57.6 ± 5.4
EF (AktTG and NTG mice; AktTG): 31.8 ± 2.1
ESP (AktTG and NTG mice; AktTG): 90.1 ± 0.9
ESV (AktTG and NTG mice; AktTG): 39.6 ± 4.5
Eesn (AktTG and NTG mice; AktTG): 21.5 ± 2.9
HR (AktTG and NTG mice; AktTG): 569.5 ± 47.4
PMXI (AktTG and NTG mice; AktTG): 17.8 ± 1.9
Tau (AktTG and NTG mice; AktTG): 10.0 ± 0.6
dP/dtmax/IP (AktTG and NTG mice; AktTG): 128.5 ± 2.9
dPdtmax (AktTG and NTG mice; AktTG): 6993 ± 156
dPdtmin (AktTG and NTG mice; AktTG): −6241 ± 289
EDP (AktTG and NTG mice; NTG): 4.9 ± 1.2
EDV (AktTG and NTG mice; NTG): 44.5 ± 4.9
EF (AktTG and NTG mice; NTG): 56.7 ± 3.5
ESP (AktTG and NTG mice; NTG): 96.7 ± 4.7
ESV (AktTG and NTG mice; NTG): 19.4 ± 3.0
Eesn (AktTG and NTG mice; NTG): 39.9 ± 1.5
HR (AktTG and NTG mice; NTG): 511.6 ± 31.4
PMXI (AktTG and NTG mice; NTG): 25.9 ± 2.2
Tau (AktTG and NTG mice; NTG): 7.4 ± 0.6
dP/dtmax/IP (AktTG and NTG mice; NTG): 176.4 ± 14.8
dPdtmax (AktTG and NTG mice; NTG): 10133 ± 791
dPdtmin (AktTG and NTG mice; NTG): −9267 ± 417
TAC-increased Akt activity (Akt): suppressed this response at both time points to near baseline
GSK3β activation (GSK3β; 1-week TAC): remained unchanged
Akt and GSK3β activation (GSK3β; 9-weeks TAC): reduced both
STAT3 activation (phosphorylation) (STAT3): inhibits activation of STAT3
